Measurements taken from patent publication US12522601B2, “1,3,4-oxadiazole derivative compounds as histone deacetylase 6 inhibitor, and the pharmaceutical composition comprising the same” (CHONG KUN DANG PHARMACEUTICAL CORP., priority 2020, dated 2026).

Columns and labels:
human recombinant HDAC6 = target: T1, human recombinant HDAC6 (Homo sapiens, UniProt Q9UBN7); assay: In vitro HDAC enzyme activity inhibition assay, HDAC6 (HDAC Fluorimetric Drug Discovery Kit); format: biochemical; details: for HDAC6 Selectivity (fold): HDAC6 versus HDAC1; for IC50: human recombinant HDAC6, same protocol as the HDAC1 test
T1 construct: purchased Calbiochem Inc. 382180
T1 sequence (Q9UBN7 1-1215): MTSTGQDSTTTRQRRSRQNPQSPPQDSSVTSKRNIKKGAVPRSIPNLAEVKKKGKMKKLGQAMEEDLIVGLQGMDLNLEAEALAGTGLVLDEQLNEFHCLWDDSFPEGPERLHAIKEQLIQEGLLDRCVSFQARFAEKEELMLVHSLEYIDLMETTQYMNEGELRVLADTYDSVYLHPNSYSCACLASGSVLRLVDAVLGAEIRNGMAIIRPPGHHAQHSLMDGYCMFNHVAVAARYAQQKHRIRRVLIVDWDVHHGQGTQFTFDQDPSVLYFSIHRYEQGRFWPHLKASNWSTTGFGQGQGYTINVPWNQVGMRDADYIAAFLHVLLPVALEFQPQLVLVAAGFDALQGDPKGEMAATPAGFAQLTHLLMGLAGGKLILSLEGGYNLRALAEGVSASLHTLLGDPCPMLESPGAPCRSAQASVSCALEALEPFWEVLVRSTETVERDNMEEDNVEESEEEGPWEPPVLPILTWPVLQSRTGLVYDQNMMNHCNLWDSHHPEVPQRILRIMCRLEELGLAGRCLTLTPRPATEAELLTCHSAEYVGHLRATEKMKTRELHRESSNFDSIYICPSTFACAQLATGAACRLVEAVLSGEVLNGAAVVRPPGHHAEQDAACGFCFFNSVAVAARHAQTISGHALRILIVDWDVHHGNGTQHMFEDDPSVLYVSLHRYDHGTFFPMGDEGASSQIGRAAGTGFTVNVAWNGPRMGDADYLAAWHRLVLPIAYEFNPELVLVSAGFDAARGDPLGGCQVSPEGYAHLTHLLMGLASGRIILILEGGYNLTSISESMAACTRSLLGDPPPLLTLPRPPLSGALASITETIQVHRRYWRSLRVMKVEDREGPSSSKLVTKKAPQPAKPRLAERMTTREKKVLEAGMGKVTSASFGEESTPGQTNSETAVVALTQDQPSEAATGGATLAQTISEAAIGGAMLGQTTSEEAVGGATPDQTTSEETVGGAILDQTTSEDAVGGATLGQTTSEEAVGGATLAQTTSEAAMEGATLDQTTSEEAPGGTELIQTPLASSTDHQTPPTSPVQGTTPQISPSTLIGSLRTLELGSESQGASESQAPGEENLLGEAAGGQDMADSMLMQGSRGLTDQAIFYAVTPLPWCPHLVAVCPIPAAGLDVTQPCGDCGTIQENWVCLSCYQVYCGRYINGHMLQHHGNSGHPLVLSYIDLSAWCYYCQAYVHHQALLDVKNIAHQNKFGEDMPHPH
Protocol: (§1) In order to confirm the selectivity of the compounds represented by Chemical Formula I of the present invention to HDAC6 through HDAC1 and HDAC6 enzyme activity inhibition experiments, a comparison experiment was performed using the material that has already been developed as a control group.
(§2) HDAC enzyme activity was measured using the HDAC Fluorimetric Drug Discovery Kit (Enzo Life Sciences, Inc., BML-AK511, 516). For the HDAC1 enzyme activity test, human recombinant HDAC1 (BML-SE456) was used as an enzyme source and Fluor de Lys®-SIRT1 (BNL-KI177) was used as a substrate. After dispensing 5-fold diluted compounds into a 96-well plate, 0.3 μg of enzyme and 10 μM substrate were added to each well of the plate and allowed to react at 30° C. for 60 minutes. Next, Fluor de Lys® Developer II (BML-KI176) was added and reacted for 30 minutes to complete the reaction, and then the fluorescence values (Ex 360, Em 460) were measured using a multi-plate reader (Flexstation 3, Molecular Device). The HDAC6 enzymes were tested using human recombinant HDAC6 (382180) from Calbiochem Inc., according to the same protocol as the HDAC1 enzyme activity test method. With respect to the final result values, respective IC50 values were calculated using GraphPad Prism 4.0 program, and results thereof were summarized in Table 5 below.

human recombinant HDAC1 = target: T2, human recombinant HDAC1 (Homo sapiens, UniProt Q13547); assay: In vitro HDAC enzyme activity inhibition assay, HDAC1 (HDAC Fluorimetric Drug Discovery Kit); format: biochemical; details: human recombinant HDAC1, Fluor de Lys-SIRT1 substrate 10 μM, 30° C. for 60 minutes
T2 construct: purchased Enzo Life Sciences, Inc. BML-SE456
T2 sequence (Q13547 whole entry): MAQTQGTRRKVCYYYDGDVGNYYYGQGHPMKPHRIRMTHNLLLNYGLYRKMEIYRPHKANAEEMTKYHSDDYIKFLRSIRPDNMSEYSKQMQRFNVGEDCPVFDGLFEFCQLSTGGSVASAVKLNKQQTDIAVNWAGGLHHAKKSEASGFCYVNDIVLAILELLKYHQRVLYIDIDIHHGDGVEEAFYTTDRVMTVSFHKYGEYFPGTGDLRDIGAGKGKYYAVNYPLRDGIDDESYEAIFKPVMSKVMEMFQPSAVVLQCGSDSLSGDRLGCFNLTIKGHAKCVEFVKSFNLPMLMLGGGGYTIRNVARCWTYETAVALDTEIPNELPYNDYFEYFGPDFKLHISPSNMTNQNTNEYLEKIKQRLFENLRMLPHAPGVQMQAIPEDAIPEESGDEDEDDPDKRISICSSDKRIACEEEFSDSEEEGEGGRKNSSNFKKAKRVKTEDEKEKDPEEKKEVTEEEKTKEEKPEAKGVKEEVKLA
Protocol: as §1, §2

SMILES | HDAC6 Selectivity (fold) (human recombinant HDAC6) | IC50 (human recombinant HDAC6) [nM] | IC50 (human recombinant HDAC1) [nM]
Fc1ccc(Cc2cn3ccc(-c4nnc(C(F)F)o4)cc3n2)cc1 [Compound 3586, 2-(difluoromethyl)-5-(2-(4-fluorobenzyl)imidazo[1,2-a]pyridin-7-yl)-1,3,4-oxadiazole] | 151 | 330 | > 50000
Fc1ccc(Cc2cn3ccc(-c4nnc(C(F)F)o4)cc3n2)cc1F [Compound 3587, 2-(2-(3,4-difluorobenzyl)imidazo[1,2-a]pyridin-7-yl)-5-(difluoromethyl)-1,3,4-oxadiazole] | 150 | 334 | > 50000
Cc1ccc(Cc2cn3ccc(-c4nnc(C(F)F)o4)cc3n2)cc1 [Compound 3589, 2-(difluoromethyl)-5-(2-(4-methylbenzyl)imidazo[1,2-a]pyridin-7-yl)-1,3,4-oxadiazole] | 94 | 530 | > 50000
COc1ccc(Cc2cn3ccc(-c4nnc(C(F)F)o4)cc3n2)cc1 [Compound 3590] | 116 | 432 | > 50000
FC(F)c1nnc(-c2ccn3cc(Cc4ccc(C(F)(F)F)cc4)nc3c2)o1 [Compound 3591] | 47 | 1060 | > 50000
CC(=O)c1ccc(Cc2cn3ccc(-c4nnc(C(F)F)o4)cc3n2)cc1 [Compound 3592, 1-(4-((7-(5-(difluoromethyl)-1,3,4-oxadiazol-2-yl)imidazo[1,2-a]pyridin-2-yl)methyl)phenyl)ethan-1-one] | 109 | 457 | > 50000
CC(C)c1cccc(Cc2cn3ccc(-c4nnc(C(F)F)o4)cc3n2)c1 [Compound 3594, 2-(difluoromethyl)-5-(2-(3-isopropylbenzyl)imidazo[1,2-a]pyridin-7-yl)-1,3,4-oxadiazole] | 89 | 564 | > 50000
CS(=O)(=O)c1ccc(Cc2cn3ccc(-c4nnc(C(F)F)o4)cc3n2)cc1 [Compound 3595, 2-(difluoromethyl)-5-(2-(4-(methylsulfonyl)benzyl)imidazo[1,2-a]pyridin-7-yl)-1,3,4-oxadiazole] | 112 | 444 | > 50000
FC(F)c1nnc(-c2ccn3cc(Cc4ccc5c(c4)OCO5)nc3c2)o1 [Compound 3596, 2-(2-(benzo[d][1,3]dioxol-5-ylmethyl)imidazo[1,2-a]pyridin-7-yl)-5-(difluoromethyl)-1,3,4-oxadiazole] | 160 | 313 | > 50000

These reach a lower IC50 (human recombinant HDAC6). Values come first.

HDAC6 Selectivity (fold) (human recombinant HDAC6) | IC50 (human recombinant HDAC6) [nM] | IC50 (human recombinant HDAC1) [nM] | SMILES
631 | 79.2 | > 50000 | FC(F)c1nnc(-c2ccn3cc(Cc4ccccc4)nc3c2)o1 [Compound 3009, 2-(2-benzylimidazo[1,2-a]pyridin-7-yl)-5-(difluoromethyl)-1,3,4-oxadiazole]
386 | 130 | > 50000 | Fc1cccc(Cc2cn3ccc(-c4nnc(C(F)F)o4)cc3n2)c1 [Compound 3585, 2-(difluoromethyl)-5-(2-(3-fluorobenzyl)imidazo[1,2-a]pyridin-7-yl)-1,3,4-oxadiazole]
205 | 244 | > 50000 | Fc1ccc(Cc2cn3ccc(-c4nnc(C(F)F)o4)cc3n2)c(F)c1 [Compound 3588, 2-(2-(2,4-difluorobenzyl)imidazo[1,2-a]pyridin-7-yl)-5-(difluoromethyl)-1,3,4-oxadiazole]
191 | 261 | > 50000 | FC(F)c1nnc(-c2ccn3cc(Cc4ccc(Cl)cc4)nc3c2)o1 [Compound 3593, 2-(2-(4-chlorobenzyl)imidazo[1,2-a]pyridin-7-yl)-5-(difluoromethyl)-1,3,4-oxadiazole]
